From patent publication US5856484A, “Sulfonylaminopyrimidine carboxylic acid derivatives having endothelin inhibiting activity” (Hoffmann-La Roche Inc., priority 1995, dated 1999) come the findings set out here.

Molecules are shown by their SMILES.

By IC50 is commonly meant the midpoint of a concentration-inhibition curve.

The target in one assay is T1, human ETA receptors (Homo sapiens, UniProt P25101).
T1 construct: made in house; host or cells: baculovirus-infected insect cells
T1 sequence (P25101 21-427): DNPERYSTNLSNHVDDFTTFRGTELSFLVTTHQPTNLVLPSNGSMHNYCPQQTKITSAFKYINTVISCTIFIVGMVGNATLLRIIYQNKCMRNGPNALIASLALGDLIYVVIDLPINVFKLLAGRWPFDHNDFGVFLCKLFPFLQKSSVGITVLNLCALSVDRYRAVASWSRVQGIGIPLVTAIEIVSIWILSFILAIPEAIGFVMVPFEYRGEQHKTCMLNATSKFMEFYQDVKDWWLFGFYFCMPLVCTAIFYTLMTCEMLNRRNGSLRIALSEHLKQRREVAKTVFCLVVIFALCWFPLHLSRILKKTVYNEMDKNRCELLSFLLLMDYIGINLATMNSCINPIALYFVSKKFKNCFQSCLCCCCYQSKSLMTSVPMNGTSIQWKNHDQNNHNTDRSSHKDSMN
Put plainly: Inhibition of endothelin binding to recombinant ETA receptors. The settings on record: 125I-endothelin, baculovirus-insect cell membranes, 20° C. 2 hours or 4° C. 24 hours. Here is the method: I, Inhibition of endothelin binding to recombinant ETA receptors
A cDNA coding for human ETA receptors of human placenta was cloned (M. Adachi, Y.-Y. Yang, Y. Furuichi and C-Miyamoto, BBRC 180, 1265-1272) and expressed in the baculovirus-insect cell system. Baculovirus-infected insect cells from a 23 I fermentor are centrifuged off (3000×g, 15 minutes, 4° C.) 60 hours after the infection, re-suspended in Tris buffer (5 mM, pH 7.4, 1 mM MgCl2) and again centrifuged. After a further re-suspension and centrifugation the cells are suspended in 800 ml of the same buffer and freeze-dried at -120° C. The cells disintegrate when the suspension in this hypotonic buffer mixture is thawed. After a repeated freeze-drying/thawing cycle the suspension is homogenized and centrifuged (25000 x g, 15 minutes, 4° C.). After suspension in Tris buffer (75 mM, pH 7.4, 25 mM MgCl2, 250 mM sucrose) 1 ml aliquots (protein content about 3.5 mg/ml) are stored at -85° C.
(§1) For the binding assay, the freeze-dried membrane preparations are thawed and, after centrifugation at 20° C. and 25000 g for 10 minutes, re-suspended in assay buffer (50 mM Tris buffer pH 7.4, containing 25 mM MnCl2, 1 mM EDTA and 0.5% bovine serum albumin). 100 μl of this membrane suspension containing 5 μg of protein are incubated with 50 μl of ^125 I-endothelin (specific activity 2200 Ci/mMol) in assay buffer (25000 cpm, final concentration 20 μM) and 100 μl of assay buffer containing varying concentrations of test compound. The incubation is carried out at 20° C. for 2 hours or at 4° C. for 24 hours. The separation of free and membrane-bound radioligands is carried out by filtration over a glass fibre filter.
(§2) The inibitory activity on ETA and ETB receptors of compounds of formula I determined in these test procedures is given in Table 1 as the IC50, i.e. as the concentration [μM] which is required to inhibit 50% of the specific binding of ^125 I-endothelin.

The target in another assay is T2, ETB receptors (Homo sapiens, UniProt P24530).
T2 construct: Human placenta is homogenized in 5 mM Tris buffer; from tissue; host or cells: human placenta membranes
T2 sequence (P24530 27-442): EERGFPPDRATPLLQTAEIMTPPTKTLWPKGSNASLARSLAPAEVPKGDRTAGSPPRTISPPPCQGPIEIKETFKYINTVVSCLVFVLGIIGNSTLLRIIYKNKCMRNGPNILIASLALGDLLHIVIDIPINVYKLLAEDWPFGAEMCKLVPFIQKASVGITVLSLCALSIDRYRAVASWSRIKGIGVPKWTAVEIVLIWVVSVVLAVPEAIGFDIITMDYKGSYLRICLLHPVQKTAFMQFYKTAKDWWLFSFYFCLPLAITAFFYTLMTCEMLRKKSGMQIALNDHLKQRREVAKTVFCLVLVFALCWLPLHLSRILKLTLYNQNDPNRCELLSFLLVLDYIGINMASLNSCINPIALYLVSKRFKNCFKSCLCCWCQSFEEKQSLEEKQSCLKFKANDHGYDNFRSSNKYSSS
The experiment in a line: Inhibition of endothelin binding to human placenta membranes (ETB receptors). The settings on record: 125I-endothelin, 20° C. 2 hours or 4° C. 24 hours. The method, then:
II. Inhibition of endothelin binding to human placenta membranes (ETB receptors) (see Life Sci 44:1429 (1989))
Human placenta is homogenized in 5 mM Tris buffer, pH 7.4, which contains 1 mM MgCl2 and 250 mM sucrose. The homogenizate is centrifuged at 4° C. and 3000 g for 15 minutes, the supernatant containing the plasma membrane fraction is centrifuged at 72000 g for 30 minutes and the precipitate is washed with 75 mM Tris buffer, pH 7.4, which contains 25 mM MgCl2. Thereafter, precipitate obtained from in each case 10 g of original tissue is suspended in 1 ml of 75 mM Tris buffer, pH 7.4, containing 25 mM MgCl2 and 250 mM sucrose and freeze-dried at -20° C. in 1 ml aliquots.
as §1, with “Tris buffer,” for “Tris buffer”, “containing 35” for “containing 5”, “^125 I-endotheline” for “^125 I-endothelin”, “2200 (Ci/mMol)” for “2200 Ci/mMol)”, “20 pM)” for “20 μM)”
as §2

Turning to `COc1ccc(Cl)c(Oc2c(NS(=O)(=O)c3ccc(C(C)(C)C)cc3)nc(C(=O)Nc3ccccc3)nc2OCCO)c1` [Example 9, 4-(4-tert.Butyl-phenylsulphonylamino)-5-(2-chloro-5-methoxy-phenoxy)-6-(2-hydroxy-ethoxy)-pyrimidine-2-carboxylic acid phenylamide], the IC50 on human ETA receptors is 21.4 µM; at ETB receptors, 0.086 µM.

In the case of `COc1ccccc1Oc1c(NS(=O)(=O)c2ccc(C(C)(C)C)cc2)nc(C(=O)Nc2ccccc2)nc1OCCO` [Example 8, 6-(4-tert.Butyl-phenylsulphonylamino)-5-(2-methoxy-phenoxy)-4-(2-hydroxy-ethoxy)-pyrimidine-2-carboxylic acid phenylamide], the IC50 came to 13 µM at human ETA receptors and 0.06 µM at ETB receptors.

For the molecule `COc1ccccc1Oc1c(NS(=O)(=O)c2ccc(C(C)(C)C)cc2)nc(C(=O)O)nc1OCCO` [Example 5, 6-(4-tert.butyl-phenylsulphonylamino)-4-(2-hydroxy-ethoxy)-5-(2-methoxy-phenoxy)-pyrimidine-2-carboxylic acid], the IC50 at human ETA receptors is 16.4 µM; at ETB receptors it was 0.29 µM.

For the molecule `COc1cccc(Oc2c(NS(=O)(=O)c3ccc(C(C)(C)C)cc3)nc(C(=O)Nc3nnn[nH]3)nc2OCCO)c1` [Example 10, 4-(4-tert.Butyl-phenylsulphonylamino)-6-(2-hydroxy-ethoxy)-5-(3-methoxy-phenoxy)-pyrimidine-2-carboxylic acid (1 H-tetrazol-5-yl)-amide], the IC50 on human ETA receptors amounted to 13 µM; on ETB receptors, 0.14 µM.

As to `COc1ccc(Cl)c(Oc2c(NS(=O)(=O)c3ccc(C(C)(C)C)cc3)nc(C(=O)O)nc2OCCO)c1` [Example 2, 4-(4-tert.Butyl-phenylsulphonylamino)-5-(2-chloro-5-methoxy-phenoxy)-6-(2-hydroxy-ethoxy)-pyrimidine-2-carboxylic acid], the IC50 at human ETA receptors turned out to be 1.83 µM.

As to `COc1ccc(S(=O)(=O)Nc2nc(C(=O)Nc3ccccc3)nc(OCCO)c2Oc2cccc(OC)c2)cc1` [Example 7, 4-(2-Hydroxy-ethoxy)-5-(3-methoxy-phenoxy)-6-(4-methoxy-phenylsulphonylamino)-pyrimidine-2-carboxylic acid phenylamide], the figures for the IC50 at human ETA receptors and on ETB receptors were 18.2 µM and 0.3 µM, respectively.

For the molecule `COc1cccc(Oc2c(NS(=O)(=O)c3ccc(C(C)(C)C)cc3)nc(C(=O)O)nc2OCCO)c1` [Example 1, 6-(4-tert.butyl-phenylsulphonylamino)-4-(2-hydroxy-ethoxy)-5-(3-methoxy-phenoxy)-pyrimidine-2-carboxylic acid], the IC50 on human ETA receptors was determined as 73 µM; at ETB receptors, 0.08 µM.

For the molecule `COc1cccc(Oc2c(NS(=O)(=O)c3ccc(C(C)(C)C)cc3)nc(C(=O)Nc3ccccc3)nc2OCCO)c1` [Example 6, 6-(4-tert.butyl-phenylsulphonylamino)-4-(2-hydroxy-ethoxy)-5-(3-methoxy-phenoxy)-pyrimidine-2-carboxylic acid phenylamide], the half-inhibitory concentration (IC50) on human ETA receptors was found to be 38 µM.
